Tests used:
[1] = test system: sheep testicular hyaluronidase; test: hyaluronidase inhibition (hyaluronic acid hydrolysis); format: biochemical; details: pH 5.5, 10 minutes preincubation; inactive = no inhibition at 1 mg/ml
Description: Hyaluronidase activity was quantitatively determined by measuring the extent of hyaluronic acid hydrolysis (i.e., the concentration of N-acetylglucosamine-reactive material formed from enzyme activity). Reaction mixtures (0.25 ml) containing the following were prepared: test compound (variable concentration); 0.1 M sodium acetate; 0.15 M sodium chloride; pH adjusted to 5.5; 7.2 units sheep testicular hyaluronidase (Sigma, Type III; H-2251) contained in an acetate buffer; 0.3 mg/ml hyaluronic acid (Sigma, from bovine vitreous humor; H-7630). The enzyme was preincubated with the test agent (1 mg/ml for screening purposes) for 10 minutes before starting the reaction by the addition of hyaluronic acid. The enzyme reaction was determined using the method of Aronson and Davidson (J. Biol. Chem. 241 437-440 (1967)). The reaction mixture was incubated for 30 minutes at room temperature.
The reversibility of the hyaluronidase was determined by evaluating enzyme activity at different levels of enzyme (Ackermann and Potter, Proc. Soc. Exp. Biol. Med. 72 1-9 (1949)).

[2] = test system: vaginal/cervical epithelial and other cells; details: background statement; cited from earlier work
MT2 cells = test: cytotoxicity towards host cells in the viral-binding inhibition assay; format: cell-based; details: at the concentration ranges used in the viral-binding inhibition assay
Description: Serial dilutions of the test compounds (ranging from 0.1 μg/ml to 1.0 mg/ml) were added to HIV-1 virus such that 50 μl inoculum produced between 70 to 100 syncytia per well in untreated wells containing MT2 cells. The HIV-1 used was strain IIIs propagated in, and harvested from, a T4-lymphobastoid cell line. Each serial dilution of the test compound with virus was placed in each of three wells containing MT2 cells. The test compound alone was added to a fourth well containing MT2 cells to test for possible cytotoxicity. Triplicate virus control samples (no added test compounds but containing the equivalent amounts of the RPMI medium) were also included.

Lactobacillus gasseri = test: effect on normal vaginal flora (Lactobacillus growth in culture); format: cell-based; details: at 0.5 mg/ml
Description: This example illustrates the effect of the inhibitory agents of this invention on the normal vaginal flora. Lactobacillus gasseri, which is found in normal vaginal flora, was obtained from the American Type Culture Collection (Rockville, Md.) and cultured under anaerobic conditions at 37° C. in the presence of the desired test agents. Control samples without added test agents were also run. Samples were collected at twenty minute intervals starting at 120 minutes after the start of incubation through 240 minutes. The absorbance at 550 nm was used to estimate the cell density and inhibitory effects. Nonoxynol-9 was also evaluated for comparison purposes.

HIV-1 = details: comparison statement, no data given; cited from earlier work

## Nonoxynol-9
[1]
  IC50 (hyaluronidase): inactive
[2]
  lowest concentration that can injure vaginal/cervical epithelial and other cells: about 0.0005%
MT2 cells
  toxicity towards the host cells (MT2): did show cytotoxic effects
Lactobacillus gasseri
  inhibition of Lactobacillus gasseri growth: about 60%
HIV-1
  inhibition of the enveloped virus HIV (in words): inhibits

Reference: US6239182A, “Method for preventing sexually transmitted diseases” (priority 1999, dated 2001)
